# pKi: −log10 of the molar value.
# Target: T1, NgCA (Neisseria gonorrhoeae, UniProt Q50940)
# T1 construct: gene cah
# T1 sequence (Q50940 27-252): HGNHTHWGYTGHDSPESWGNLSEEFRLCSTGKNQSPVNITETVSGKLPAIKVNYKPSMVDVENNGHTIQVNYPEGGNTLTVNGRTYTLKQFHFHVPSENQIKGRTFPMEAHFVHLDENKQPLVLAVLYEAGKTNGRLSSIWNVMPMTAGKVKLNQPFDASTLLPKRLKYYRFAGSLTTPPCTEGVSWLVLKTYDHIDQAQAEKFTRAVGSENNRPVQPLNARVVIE
# Test: biochemical
# Settings: not given
row,SMILES,pKi
1,O=P(O)(O)OP(=O)(O)O [P2O7^2-],2.31
2,O=S(=O)(O)O [SO4^2-],3.08
3,N#CS [NCS^−],3.04
4,I [I^−],2.02

# Same assay, conditions: read-out: NgCA
row,SMILES,pKi
1,Cl [Cl^−],2.32
2,O=[Te](=O)(O)O [TeO4^2-],3.12
3,O=S(=O)(O)OOS(=O)(=O)O [S2O8^2-],3.10
4,O=NO [NO2^−],3.23
5,S [HS^−],3.26
6,S=C(S)S [CS3^2-],4.06
7,NS(N)(=O)=O [NH2SO2NH2],4.24
8,O=S(=O)(O)F [FSO3^−],3.21
9,O=S(O)O [HSO3^−],3.18
10,Br [Br^−],2.40
11,NS(=O)(=O)O [NH2SO3H],4.62
12,O=S(=O)(O)C(F)(F)F [CF3SO3^−],2.24
13,OB(O)c1ccccc1 [PhB(OH)2],3.82
14,N#C[SeH] [SeCN^−],3.18
15,O=[Se](=O)(O)O [SeO4^2-],3.06
16,[O-][Cl+3]([O-])([O-])O [ClO4^−],< 1.00
17,[O]=[Re](=[O])(=[O])[OH] [ReO4^−],3.02
18,F [F^−],2.08
19,[O]=[V]([OH])([OH])[O][V](=[O])([OH])[OH] [V2O7^2-],2.55
20,N#CO [NCO^−],3.37
21,CCN(CC)C(=S)S [EtNCS2^−],5.29
22,[O]=[Ru](=[O])(=[O])[OH] [RuO4^−],2.72
23,O=[N+]([O-])O [NO3^−],3.07
24,O=S(=O)(O)NS(=O)(=O)O [NH(SO3)2^2-],3.60

# Same assay, conditions: sodium salt; CO2 substrate, 10 mM Hepes pH 7.4, 10 mM NaClO4, 15 min preincubation at room temperature; read-out: hCA I
row,SMILES,pKi
1,F[P-](F)(F)(F)(F)F [PF6^−],< 1.00

# — publication PMC8158254, “Anion inhibition studies of the α-carbonic anhydrases from Neisseria gonorrhoeae” (Journal of Enzyme Inhibition and Medicinal Chemistry, 2021)
